Measured values reported in ChEMBL document CHEMBL1135084, “DNA cleavage by aromatic amines” (Bioorg Med Chem Lett, 2002).
Several values for one entry are separate records, joined by “and”; a condition that tells them apart may be missing. Identical values can stand only once.

How the values were obtained:
Type in all cases: functional
Conditions in all cases: Enterobacteria phage phiX174
Nucleic Acid [1] = experiment: Percent DNA cleavage induced by administering the compound (1.0 uM) within 12 hr to form RfI DNA was determined by using phiX174 bacteriophage DNA
Nucleic Acid [2] = experiment: Percent DNA cleavage induced by administering the compound (1.0 uM) within 12 hr to form RfII DNA was determined by using phiX174 bacteriophage DNA
Nucleic Acid [3] = experiment: Percent DNA cleavage induced by administering the compound (1.0 uM) within 12 hr to form RfIII DNA was determined by using phiX174 bacteriophage DNA
Nucleic Acid [4] = experiment: Percent DNA cleavage induced by administering the compound (0.1 uM) within 24 hr to form RfII DNA was determined by using phiX174 bacteriophage DNA
Nucleic Acid [5] = experiment: Percent DNA cleavage induced by administering the compound (0.1 uM) within 24 hr to form RfI DNA was determined by using phiX174 bacteriophage DNA
Nucleic Acid [6] = experiment: Percent DNA cleavage induced by administering the compound (0.1 uM) within 48 hr to form RfIII DNA was determined by using phiX174 bacteriophage DNA
Nucleic Acid [7] = experiment: Percent DNA cleavage induced by administering the compound (0.1 uM) within 48 hr to form RfI DNA was determined by using phiX174 bacteriophage DNA
Nucleic Acid [8] = experiment: Percent DNA cleavage induced by administering the compound (0.1 uM) within 48 hr to form RfII DNA was determined by using phiX174 bacteriophage DNA
Nucleic Acid [9] = experiment: Percent DNA cleavage induced by administering the compound (0.1 uM) within 24 hr to form RfIII DNA was determined by using phiX174 bacteriophage DNA
Nucleic Acid [10] = experiment: Percent DNA cleavage induced by administering the compound (0.1 uM), additive Ar/N2 within 12 hr to form RfIII DNA was determined by using phiX174 bacteriophage DNA
Nucleic Acid [11] = experiment: Percent DNA cleavage induced by administering the compound (0.1 uM), additive 1000 uM distamycin A within 24 hr to form RfIII DNA was determined by using phiX174 bacteriophage DNA
Nucleic Acid [12] = experiment: Percent DNA cleavage induced by administering the compound (0.1 uM), additive 1000 uM distamycin A within 24 hr to form RfI DNA was determined by using phiX174 bacteriophage DNA
Nucleic Acid [13] = experiment: Percent DNA cleavage induced by administering the compound (0.1 uM), additive 100 uM distamycin A within 24 hr to form RfII DNA was determined by using phiX174 bacteriophage DNA
Nucleic Acid [14] = experiment: Percent DNA cleavage induced by administering the compound (0.1 uM), additive 10 uM distamycin A within 24 hr to form RfII DNA was determined by using phiX174 bacteriophage DNA
Nucleic Acid [15] = experiment: Percent DNA cleavage induced by administering the compound (0.1 uM), additive 10 uM distamycin A within 24 hr to form RfIII DNA was determined by using phiX174 bacteriophage DNA
Nucleic Acid [16] = experiment: Percent DNA cleavage induced by administering the compound (0.1 uM), additive 10 mM aliquots of metal chlorides M2+/3- within 12 hr to form RfIII DNA was determined by using phiX174 bacteriophage DNA
Nucleic Acid [17] = experiment: Percent DNA cleavage induced by administering the compound (0.1 uM), additive Ar/N2 within 12 hr to form RfI DNA was determined by using phiX174 bacteriophage DNA
Nucleic Acid [18] = experiment: Percent DNA cleavage induced by administering the compound (0.1 uM), additive Ar/N2 within 12 hr to form RfII DNA was determined by using phiX174 bacteriophage DNA
Nucleic Acid [19] = experiment: Percent DNA cleavage induced by administering the compound (0.1 uM), additive 10 mM aliquots of metal chlorides M2+/3- within 12 hr to form RfII DNA was determined by using phiX174 bacteriophage DNA
Nucleic Acid [20] = experiment: Percent DNA cleavage induced by administering the compound (0.1 uM), additive 1000 uM distamycin A within 24 hr to form RfII DNA was determined by using phiX174 bacteriophage DNA
Nucleic Acid [21] = experiment: Percent DNA cleavage induced by administering the compound (0.1 uM), additive 10 mM aliquots of metal chlorides M2+/3- within 12 hr to form RfI DNA was determined by using phiX174 bacteriophage DNA
Nucleic Acid [22] = experiment: Percent DNA cleavage induced by administering the compound (0.1uM), additive 10 uM distamycin A within 24 hr to form RfI DNA was determined by using phiX174 bacteriophage DNA
Nucleic Acid [23] = experiment: Percent DNA cleavage induced by administering the compound (0.1 uM), additive 100 uM distamycin A within 24 hr to form RfIII DNA was determined by using phiX174 bacteriophage DNA
Nucleic Acid [24] = experiment: Percent DNA cleavage induced by administering the compound (0.1 uM), additive 100 uM distamycin A within 24 hr to form RfI DNA was determined by using phiX174 bacteriophage DNA
Nucleic Acid [25] = experiment: Percent DNA cleavage induced by administering the compound (0.1 uM) within 12 hr to form RfIII DNA was determined by using phiX174 bacteriophage DNA
Nucleic Acid [26] = experiment: Percent DNA cleavage induced by administering the compound (0.1 uM) within 12 hr to form RfII DNA was determined by using phiX174 bacteriophage DNA
Nucleic Acid [27] = experiment: Percent DNA cleavage induced by administering the compound (0.1 uM) within 12 hr to form RfI DNA was determined by using phiX174 bacteriophage DNA
Nucleic Acid [28] = experiment: Percent DNA cleavage induced by administering the compound (1.0 uM) within 48 hr to form RfIII DNA was determined by using phiX174 bacteriophage DNA
Nucleic Acid [29] = experiment: Percent DNA cleavage induced by administering the compound (1.0 uM) within 48 hr to form RfI DNA was determined by using phiX174 bacteriophage DNA
Nucleic Acid [30] = experiment: Percent DNA cleavage induced by administering the compound (1.0 uM) within 48 hr to form RfII DNA was determined by using phiX174 bacteriophage DNA
Nucleic Acid [31] = experiment: Percent DNA cleavage induced by administering the compound within 12 hr to form RfI DNA was determined by using phiX174 bacteriophage DNA
Nucleic Acid [32] = experiment: Percent DNA cleavage induced by administering the compound (1.0 uM) within 12 hr to form RfIII DNA was determined by using phiX174 bacteriophage DNA by using phiX174 bacteriophage DNA
Nucleic Acid [33] = experiment: Percent DNA cleavage induced by administering the compound (0.1 uM) within 24hto form RfIII DNA was determined by using phiX174 bacteriophage DNA

Compound: CCOC(=O)c1cc(NC(=O)c2cccc([N+](=O)[O-])c2)cc(NC(=O)c2cc(N)cc([N+](=O)[O-])c2)c1
- Cleavage (Nucleic Acid [1]): 44%
- Cleavage (Nucleic Acid [2]): 56%
- Cleavage (Nucleic Acid [3]): 0%

Compound: Nc1cc(C(=O)Nc2cc(NC(=O)c3ccccc3)cc(C(=O)NCCNC(=O)c3cc(NC(=O)c4ccccc4)cc(NC(=O)c4cc(N)cc([N+](=O)[O-])c4)c3)c2)cc([N+](=O)[O-])c1
- Cleavage (Nucleic Acid [4]): 64%
- Cleavage (Nucleic Acid [5]): 36%
- Cleavage (Nucleic Acid [6]): 0%
- Cleavage (Nucleic Acid [7]): 10%
- Cleavage (Nucleic Acid [8]): 90%
- Cleavage (Nucleic Acid [9]): 0%

Compound: Nc1cccc(C(=O)Nc2cc(NC(=O)c3ccccc3)cc(C(=O)NCNC(=O)c3cc(NC(=O)c4ccccc4)cc(NC(=O)c4cccc(N)c4)c3)c2)c1
- Cleavage (Nucleic Acid [4]): 100%
- Cleavage (Nucleic Acid [5]): 0%
- Cleavage (Nucleic Acid [9]): 0%

Compound: Nc1cccc(C(=O)Nc2cc(NC(=O)c3ccccc3)cc(C(=O)NCCCNC(=O)c3cc(NC(=O)c4ccccc4)cc(NC(=O)c4cccc(N)c4)c3)c2)c1
- Cleavage (Nucleic Acid [10]): 0%
- Cleavage (Nucleic Acid [11]): 0%
- Cleavage (Nucleic Acid [12]): 95%
- Cleavage (Nucleic Acid [4]): 76%
- Cleavage (Nucleic Acid [5]): 24%
- Cleavage (Nucleic Acid [13]): 35%
- Cleavage (Nucleic Acid [14]): 75%
- Cleavage (Nucleic Acid [6]): 0%
- Cleavage (Nucleic Acid [15]): 0%
- Cleavage (Nucleic Acid [16]): 0%
- Cleavage (Nucleic Acid [17]): 26%
- Cleavage (Nucleic Acid [7]): 1%
- Cleavage (Nucleic Acid [18]): 74%
- Cleavage (Nucleic Acid [19]): 73%
- Cleavage (Nucleic Acid [20]): 5%
- Cleavage (Nucleic Acid [21]): 27%
- Cleavage (Nucleic Acid [22]): 25%
- Cleavage (Nucleic Acid [23]): 0%
- Cleavage (Nucleic Acid [8]): 99%
- Cleavage (Nucleic Acid [9]): 0%
- Cleavage (Nucleic Acid [24]): 65%

Compound: Nc1cccc(C(=O)Nc2cc(NC(=O)c3ccccc3)cc(C(=O)NCCCCNC(=O)c3cc(NC(=O)c4ccccc4)cc(NC(=O)c4cccc(N)c4)c3)c2)c1
- Cleavage (Nucleic Acid [25]): 0%
- Cleavage (Nucleic Acid [26]): 63%
- Cleavage (Nucleic Acid [27]): 37%

Compound: CCOC(=O)c1cc(NC(=O)c2cccc(N)c2)cc(NC(=O)c2cccc([N+](=O)[O-])c2)c1
- Cleavage (Nucleic Acid [1]): 1%
- Cleavage (Nucleic Acid [2]): 99%
- Cleavage (Nucleic Acid [28]): 25%
- Cleavage (Nucleic Acid [29]): 0%
- Cleavage (Nucleic Acid [30]): 75%
- Cleavage (Nucleic Acid [3]): 0%

Compound: Nc1cccc(C(=O)Nc2cc(NC(=O)c3ccccc3)cc(C(=O)NCCNC(=O)c3cc(NC(=O)c4ccccc4)cc(NC(=O)c4cccc(N)c4)c3)c2)c1
- Cleavage (Nucleic Acid [4]): 65%
- Cleavage (Nucleic Acid [5]): 35%
- Cleavage (Nucleic Acid [6]): 0%
- Cleavage (Nucleic Acid [7]): 7%
- Cleavage (Nucleic Acid [8]): 93%
- Cleavage (Nucleic Acid [9]): 0%

Compound: Nc1cccc(C(=O)Nc2cc(NC(=O)c3ccccc3)cc(C(=O)NCCCCCCNC(=O)c3cc(NC(=O)c4ccccc4)cc(NC(=O)c4cccc(N)c4)c3)c2)c1
- Cleavage (Nucleic Acid [25]): 0%
- Cleavage (Nucleic Acid [26]): 62%
- Cleavage (Nucleic Acid [27]): 38%

Compound: CCOC(=O)c1cc(N)cc([N+](=O)[O-])c1
- Cleavage (Nucleic Acid [2]): 10%
- Cleavage (Nucleic Acid [31]): 90%
- Cleavage (Nucleic Acid [32]): 0%

Compound: Nc1cccc(C(=O)Nc2cc(NC(=O)c3ccccc3)cc(C(=O)NCCCCCNC(=O)c3cc(NC(=O)c4ccccc4)cc(NC(=O)c4cccc(N)c4)c3)c2)c1
- Cleavage (Nucleic Acid [4]): 65%
- Cleavage (Nucleic Acid [5]): 35%
- Cleavage (Nucleic Acid [9]): 0%

Compound: COc1cc(N)cc(C(=O)Nc2cc(NC(=O)c3ccccc3)cc(C(=O)NCCNC(=O)c3cc(NC(=O)c4ccccc4)cc(NC(=O)c4cc(N)cc(OC)c4)c3)c2)c1
- Cleavage (Nucleic Acid [33]): 0% and 1%

Compound: CCOC(=O)c1cc(NC(=O)c2cc(N)cc(OC)c2)cc(NC(=O)c2cccc([N+](=O)[O-])c2)c1
- Cleavage (Nucleic Acid [1]): 11%
- Cleavage (Nucleic Acid [2]): 89%
- Cleavage (Nucleic Acid [3]): 0%
